Test results taken from ChEMBL document CHEMBL1201862, “PubChem BioAssay data set” (2004).
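Five compound concentrations were applied to cells in 96-well plates for 48 hours; endpoints were derived by simple linear interpolation of the resulting dose-response curve. Here, GI50 denotes the concentration required for 50% inhibition of growth.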 Active and inactive are the calls of the source. Rule as the data show it: active = GI50 up to about 1.1 µM and inactive = higher.

Legend:
Test in all cases: inhibition of tumour cell growth, NCI panel, 48 h
[1] = test system: 786-0
[2] = test system: A498
[3] = test system: A549
[4] = test system: ACHN
[5] = test system: CAKI-1
[6] = test system: CCRF-CEM
[7] = test system: DU-145
[8] = test system: EKVX
[9] = test system: HCC 2998
[10] = test system: HCT-116
[11] = test system: HCT-15
[12] = test system: HL-60
[13] = test system: HOP-62
[14] = test system: HOP-92
[15] = test system: HT-29
[16] = test system: Hs-578T
[17] = test system: IGROV-1
[18] = test system: K562
[19] = test system: LOX IMVI
[20] = test system: M14
[21] = test system: MCF7
[22] = test system: MDA-MB-231
[23] = test system: MDA-MB-435
[24] = test system: MDA-N
[25] = test system: MOLT-4
[26] = test system: Malme-3M
[27] = test system: NCI-H23
[28] = test system: NCI-H460
[29] = test system: NCI-H522
[30] = test system: NCI/ADR-RES
[31] = test system: OVCAR-3
[32] = test system: OVCAR-4
[33] = test system: OVCAR-5
[34] = test system: OVCAR-8
[35] = test system: PC-3
[36] = test system: RPMI-8226
[37] = test system: RXF 393
[38] = test system: SF-268
[39] = test system: SF-295
[40] = test system: SF-539
[41] = test system: SK-MEL-28
[42] = test system: SK-MEL-2
[43] = test system: SK-MEL-5
[44] = test system: SK-OV-3
[45] = test system: SNB-19
[46] = test system: SR
[47] = test system: SW-620
[48] = test system: T47D
[49] = test system: TK-10
[50] = test system: U-251
[51] = test system: UACC-257
[52] = test system: UO-31
[53] = test system: BT-549
[54] = test system: COLO 205
[55] = test system: KM12
[56] = test system: NCI-H226
[57] = test system: SN12C
[58] = test system: SNB-75
[59] = test system: UACC-62

SMILES: COC(=O)c1c2c(cc3c1CC1(Cc4cc5c(c(C)c4C1)CCC5)C3)CCC2 (stereo unspecified)
- GI50 [1]: > 100 µM (inactive)
- GI50 [2]: > 100 µM (inactive)
- GI50 [3]: > 100 µM (inactive)
- GI50 [4]: > 100 µM (inactive)
- GI50 [5]: > 100 µM (inactive)
- GI50 [6]: > 100 µM (inactive)
- GI50 [7]: > 100 µM (inactive)
- GI50 [8]: > 100 µM (inactive)
- GI50 [9]: > 100 µM (inactive)
- GI50 [10]: > 100 µM (inactive)
- GI50 [11]: > 100 µM
- GI50 [12]: > 100 µM (inactive)
- GI50 [13]: > 100 µM (inactive)
- GI50 [14]: > 100 µM (inactive)
- GI50 [15]: > 100 µM (inactive)
- GI50 [16]: > 100 µM (inactive)
- GI50 [17]: > 100 µM (inactive)
- GI50 [18]: > 100 µM (inactive)
- GI50 [19]: > 100 µM (inactive)
- GI50 [20]: > 100 µM (inactive)
- GI50 [21]: > 100 µM (inactive)
- GI50 [22]: > 100 µM (inactive)
- GI50 [23]: > 100 µM (inactive)
- GI50 [24]: > 100 µM (inactive)
- GI50 [25]: > 100 µM (inactive)
- GI50 [26]: > 100 µM (inactive)
- GI50 [27]: > 100 µM (inactive)
- GI50 [28]: > 100 µM (inactive)
- GI50 [29]: > 100 µM (inactive)
- GI50 [30]: > 100 µM (inactive)
- GI50 [31]: > 100 µM (inactive)
- GI50 [32]: > 100 µM (inactive)
- GI50 [33]: > 100 µM (inactive)
- GI50 [34]: > 100 µM (inactive)
- GI50 [35]: > 100 µM (inactive)
- GI50 [36]: > 100 µM (inactive)
- GI50 [37]: 90.4 µM (inactive)
- GI50 [38]: > 100 µM (inactive)
- GI50 [39]: > 100 µM (inactive)
- GI50 [40]: > 100 µM (inactive)
- GI50 [41]: > 100 µM (inactive)
- GI50 [42]: > 100 µM (inactive)
- GI50 [43]: > 100 µM (inactive)
- GI50 [44]: > 100 µM (inactive)
- GI50 [45]: > 100 µM (inactive)
- GI50 [46]: > 100 µM (inactive)
- GI50 [47]: > 100 µM (inactive)
- GI50 [48]: > 100 µM (inactive)
- GI50 [49]: > 100 µM (inactive)
- GI50 [50]: > 100 µM (inactive)
- GI50 [51]: > 100 µM (inactive)
- GI50 [52]: > 100 µM (inactive)

SMILES: COC(=O)/C=C1/OC(c2ccccc2)=C(Br)C1=O
- GI50 [1]: 25 µM (inactive)
- GI50 [2]: 70.8 µM (inactive)
- GI50 [4]: 46.8 µM (inactive)
- GI50 [53]: 18.7 µM (inactive)
- GI50 [5]: 24.8 µM (inactive)
- GI50 [6]: 25.8 µM (inactive)
- GI50 [54]: > 100 µM (inactive)
- GI50 [7]: 87.1 µM (inactive)
- GI50 [8]: > 100 µM (inactive)
- GI50 [9]: 56.8 µM (inactive)
- GI50 [10]: 17.9 µM (inactive)
- GI50 [11]: 10.6 µM
- GI50 [12]: 35.2 µM (inactive)
- GI50 [13]: > 100 µM (inactive)
- GI50 [14]: 64.4 µM (inactive)
- GI50 [15]: 20.1 µM (inactive)
- GI50 [17]: > 10 µM (inactive)
- GI50 [18]: 21.7 µM (inactive)
- GI50 [55]: 55.5 µM (inactive)
- GI50 [19]: 24.3 µM (inactive)
- GI50 [20]: 44.7 µM (inactive)
- GI50 [21]: 34.3 µM (inactive)
- GI50 [22]: 8.07 µM (inactive)
- GI50 [23]: 38 µM (inactive)
- GI50 [24]: 42.1 µM (inactive)
- GI50 [25]: 28.5 µM (inactive)
- GI50 [26]: 49 µM (inactive)
- GI50 [56]: 68.9 µM (inactive)
- GI50 [27]: 57.5 µM (inactive)
- GI50 [28]: 35.9 µM (inactive)
- GI50 [29]: 25.1 µM (inactive)
- GI50 [31]: > 100 µM (inactive)
- GI50 [32]: 55.7 µM (inactive)
- GI50 [33]: > 100 µM (inactive)
- GI50 [34]: 29.9 µM (inactive)
- GI50 [35]: 18.9 µM (inactive)
- GI50 [36]: 31.4 µM (inactive)
- GI50 [37]: 48.2 µM (inactive)
- GI50 [38]: 49.4 µM (inactive)
- GI50 [40]: 45.9 µM (inactive)
- GI50 [41]: 64.1 µM (inactive)
- GI50 [43]: 20.3 µM (inactive)
- GI50 [44]: > 100 µM (inactive)
- GI50 [57]: 37.1 µM (inactive)
- GI50 [45]: 79.1 µM (inactive)
- GI50 [58]: 45 µM (inactive)
- GI50 [46]: 20.8 µM (inactive)
- GI50 [47]: 18.4 µM (inactive)
- GI50 [48]: 45.3 µM (inactive)
- GI50 [49]: 80.5 µM (inactive)
- GI50 [50]: 23.2 µM (inactive)
- GI50 [51]: 73.3 µM (inactive)
- GI50 [59]: 20 µM (inactive)
- GI50 [52]: 40 µM (inactive)

SMILES: COC(=O)C1(C(=O)OC)C/C(C)=C(/C)SCCCS1
- GI50 [1]: > 100 µM (inactive)
- GI50 [3]: > 100 µM (inactive)
- GI50 [4]: > 100 µM (inactive)
- GI50 [5]: > 100 µM (inactive)
- GI50 [6]: > 100 µM (inactive)
- GI50 [54]: > 100 µM (inactive)
- GI50 [7]: > 100 µM (inactive)
- GI50 [8]: > 100 µM (inactive)
- GI50 [9]: > 100 µM (inactive)
- GI50 [10]: > 100 µM (inactive)
- GI50 [11]: > 100 µM
- GI50 [13]: > 100 µM (inactive)
- GI50 [14]: 49.5 µM (inactive)
- GI50 [15]: > 100 µM (inactive)
- GI50 [16]: > 100 µM (inactive)
- GI50 [17]: > 100 µM (inactive)
- GI50 [18]: 43.1 µM (inactive)
- GI50 [55]: > 100 µM (inactive)
- GI50 [19]: > 100 µM (inactive)
- GI50 [20]: > 100 µM (inactive)
- GI50 [21]: > 100 µM (inactive)
- GI50 [22]: > 100 µM (inactive)
- GI50 [23]: > 100 µM (inactive)
- GI50 [24]: > 100 µM (inactive)
- GI50 [25]: 44.4 µM (inactive)
- GI50 [26]: > 100 µM (inactive)
- GI50 [56]: 79.1 µM (inactive)
- GI50 [27]: > 100 µM (inactive)
- GI50 [28]: > 100 µM (inactive)
- GI50 [29]: > 100 µM (inactive)
- GI50 [30]: > 100 µM (inactive)
- GI50 [31]: 92.7 µM (inactive)
- GI50 [32]: > 100 µM (inactive)
- GI50 [33]: > 100 µM (inactive)
- GI50 [34]: > 100 µM (inactive)
- GI50 [35]: 64.1 µM (inactive)
- GI50 [37]: > 100 µM (inactive)
- GI50 [38]: > 100 µM (inactive)
- GI50 [39]: > 100 µM (inactive)
- GI50 [40]: > 100 µM (inactive)
- GI50 [41]: > 100 µM (inactive)
- GI50 [42]: > 100 µM (inactive)
- GI50 [43]: > 100 µM (inactive)
- GI50 [44]: > 100 µM (inactive)
- GI50 [57]: 86.3 µM (inactive)
- GI50 [45]: > 100 µM (inactive)
- GI50 [58]: 28.4 µM (inactive)
- GI50 [46]: 81.3 µM (inactive)
- GI50 [47]: > 100 µM (inactive)
- GI50 [48]: > 100 µM (inactive)
- GI50 [49]: > 100 µM (inactive)
- GI50 [50]: > 100 µM (inactive)
- GI50 [51]: 71.9 µM (inactive)
- GI50 [59]: > 100 µM (inactive)
- GI50 [52]: > 100 µM (inactive)
